According to patent US20260327216A1, “SUBSTITUTED OXAZOLONE COMPOUND FOR DECREASING LEVELS OF IKZF I-4 PROTEINS” (BRISTOL-MYERS SQUIBB COMPANY, priority 2023, published 2026):

Assays:
Assay type in all cases: cell-based
[1] = molecular target: T1, IKZF3 Aiolos (Homo sapiens, UniProt Q96SW2+Q9UKT9); assay: Jurkat Cellular Degradation Assay, IKZF3; parameters: endogenous in cells; conditions: Jurkat cells, 72 h; for Dmax: human, 100% = complete degradation, 0% = no detectable degradation, read-out: IKZF3 Aiolos max % deg. observed
T1 sequence (Q9UKT9 whole entry): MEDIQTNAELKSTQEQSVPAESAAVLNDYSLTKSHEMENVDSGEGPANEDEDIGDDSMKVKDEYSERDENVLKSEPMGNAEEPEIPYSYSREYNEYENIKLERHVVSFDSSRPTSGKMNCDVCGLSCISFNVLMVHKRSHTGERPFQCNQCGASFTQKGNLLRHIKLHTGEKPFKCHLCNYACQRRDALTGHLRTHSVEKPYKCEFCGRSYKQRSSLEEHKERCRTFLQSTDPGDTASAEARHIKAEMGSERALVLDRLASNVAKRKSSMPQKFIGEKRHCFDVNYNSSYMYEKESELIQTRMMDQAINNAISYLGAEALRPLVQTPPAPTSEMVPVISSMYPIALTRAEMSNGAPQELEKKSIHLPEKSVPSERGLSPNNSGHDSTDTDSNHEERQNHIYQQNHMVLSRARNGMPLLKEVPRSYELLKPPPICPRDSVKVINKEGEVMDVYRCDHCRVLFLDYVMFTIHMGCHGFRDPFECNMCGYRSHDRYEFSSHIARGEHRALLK
T1 sequence (Q96SW2 whole entry): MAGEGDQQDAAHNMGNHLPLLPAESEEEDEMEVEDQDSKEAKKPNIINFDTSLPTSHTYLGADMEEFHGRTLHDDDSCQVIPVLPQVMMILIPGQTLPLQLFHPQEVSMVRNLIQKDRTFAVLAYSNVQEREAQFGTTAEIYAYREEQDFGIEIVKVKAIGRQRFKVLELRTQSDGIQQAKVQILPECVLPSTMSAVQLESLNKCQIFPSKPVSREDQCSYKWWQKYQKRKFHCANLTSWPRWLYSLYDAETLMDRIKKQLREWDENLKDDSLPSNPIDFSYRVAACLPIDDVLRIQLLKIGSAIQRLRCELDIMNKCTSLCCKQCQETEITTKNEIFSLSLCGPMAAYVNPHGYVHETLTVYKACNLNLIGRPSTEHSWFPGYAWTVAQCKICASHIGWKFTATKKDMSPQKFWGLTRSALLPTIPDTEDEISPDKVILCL
T1 sequence (Q16531 whole entry partner): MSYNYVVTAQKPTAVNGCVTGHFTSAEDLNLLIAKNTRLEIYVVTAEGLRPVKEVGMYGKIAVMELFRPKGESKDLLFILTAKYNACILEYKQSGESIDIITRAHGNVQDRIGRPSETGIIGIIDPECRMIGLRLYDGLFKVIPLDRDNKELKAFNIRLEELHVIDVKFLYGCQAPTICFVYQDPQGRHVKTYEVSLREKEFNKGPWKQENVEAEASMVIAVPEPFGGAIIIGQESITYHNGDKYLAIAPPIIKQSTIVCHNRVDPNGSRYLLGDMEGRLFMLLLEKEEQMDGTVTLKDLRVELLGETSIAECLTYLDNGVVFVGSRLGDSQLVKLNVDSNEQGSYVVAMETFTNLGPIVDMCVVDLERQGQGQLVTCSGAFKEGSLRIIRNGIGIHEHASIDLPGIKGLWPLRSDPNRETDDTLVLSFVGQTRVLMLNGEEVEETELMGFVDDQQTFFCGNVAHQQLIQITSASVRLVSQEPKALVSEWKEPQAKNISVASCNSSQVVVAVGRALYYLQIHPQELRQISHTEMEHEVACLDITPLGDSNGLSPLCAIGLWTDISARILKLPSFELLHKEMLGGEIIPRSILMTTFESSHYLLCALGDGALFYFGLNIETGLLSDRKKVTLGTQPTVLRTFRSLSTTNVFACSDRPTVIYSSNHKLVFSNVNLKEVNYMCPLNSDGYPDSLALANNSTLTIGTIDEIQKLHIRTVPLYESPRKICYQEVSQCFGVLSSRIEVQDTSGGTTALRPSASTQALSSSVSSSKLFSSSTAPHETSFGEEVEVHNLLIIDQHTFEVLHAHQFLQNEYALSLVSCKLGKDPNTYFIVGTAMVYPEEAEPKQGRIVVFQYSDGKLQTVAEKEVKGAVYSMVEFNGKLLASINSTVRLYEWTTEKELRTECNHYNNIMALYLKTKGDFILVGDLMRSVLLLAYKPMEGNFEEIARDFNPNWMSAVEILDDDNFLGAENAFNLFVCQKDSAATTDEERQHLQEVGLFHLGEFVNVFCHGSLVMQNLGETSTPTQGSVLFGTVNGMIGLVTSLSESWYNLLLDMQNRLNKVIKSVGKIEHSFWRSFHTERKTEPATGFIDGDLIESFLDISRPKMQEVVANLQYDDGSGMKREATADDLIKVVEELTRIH
Description: (§1) Jurkat cells were plated at 80,000 cells/well in 40 μL RPMI+10% FBS in a 384-well cell culture plate prior to using acoustic dispensing technology for adding a compound of interest. Cell cultures were incubated for 72 h at 37° C. and 5% CO2. In order to facilitate analysis, cell cultures were spun down at 200 rpm for 5 min and the supernatant was discarded. After shaking the plate to dislodge the cell pellet, cells were resuspended in 50 μL of Fixation Buffer (eBioscience FoxP3 buffer set 00-5523-00) for 60 min at room temperature. After centrifuging and discarding the supernatant, cells were permeabilized with 50 μL of Permeabilization buffer (eBioscience FoxP3 buffer set 00-5523-00) for 10 min at room temperature. Following permeabilization, cells were spun down and the supernatant was replaced with 20 μL fluorescently labelled antibodies against Helios, Ikaros and Aiolos or corresponding Isotype controls in 1× Permeabilization buffer (Ikaros-Alexa488 [Biolegend, Cat #368408, 1:50], Helios-PE [CST, Cat #29360, 1:50], Aiolos-Alexa647 [Biolegend, Cat #371106 Biolegend, 1:25]) and staining reactions were incubated for 1 h at room temperature while protected from light. Subsequently, 30 μL of 1× Permeabilization buffer was added prior to centrifuging the cells and discarding the supernatant. Stained cells were resuspended in 25 μL of flow cytometry staining buffer [PBS+0.2% bovine serum albumin (BSA)] and analyzed using an Intellicyt Ique Plus flow cytometer.
(§2) Table A-1 lists the maximum observed degradation of the IKZF1 protein, IKZF2 protein, and IKZF3 protein as measured in the Jurkat Cellular Degradation assay. The results in Table A-1 were rounded to two digits. In the Jurkat Cellular Degradation assay, a value of 100% indicated no detectable protein remaining or complete degradation of the protein; and a value of 0% indicated no detectable degradation of the protein by the test compound.

[2] = molecular target: IKZF1 Ikaros (Homo sapiens, UniProt Q13422+Q96SW2); assay: Jurkat Cellular Degradation Assay, IKZF1; parameters: endogenous in cells; conditions: Jurkat cells, 72 h; for Dmax: human, 100% = complete degradation, 0% = no detectable degradation, read-out: IKZF1 Ikaros max % deg. observed
Sequence of IKZF1 Ikaros (Q13422 whole entry): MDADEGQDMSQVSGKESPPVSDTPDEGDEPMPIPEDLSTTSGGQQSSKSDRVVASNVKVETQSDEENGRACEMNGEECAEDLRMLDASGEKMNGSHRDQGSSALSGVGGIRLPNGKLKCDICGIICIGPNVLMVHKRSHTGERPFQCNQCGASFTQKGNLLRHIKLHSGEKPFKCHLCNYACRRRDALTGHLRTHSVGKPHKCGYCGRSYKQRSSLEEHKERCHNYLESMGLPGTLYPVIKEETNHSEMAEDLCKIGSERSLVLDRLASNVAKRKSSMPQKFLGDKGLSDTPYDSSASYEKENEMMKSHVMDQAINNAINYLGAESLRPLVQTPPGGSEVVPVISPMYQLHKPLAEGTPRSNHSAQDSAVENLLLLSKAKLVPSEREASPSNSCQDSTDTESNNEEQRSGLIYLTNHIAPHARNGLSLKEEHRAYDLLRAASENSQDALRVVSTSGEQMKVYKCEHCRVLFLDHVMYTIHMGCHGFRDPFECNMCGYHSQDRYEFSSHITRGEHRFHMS
Sequence of IKZF1 Ikaros (Q96SW2 whole entry): as the sequence (Q96SW2 whole entry) above
Sequence of IKZF1 Ikaros (Q16531 whole entry partner): as the sequence (Q16531 whole entry partner) above
Description: as §1, §2

[3] = molecular target: T1, IKZF3 Aiolos; assay: Human CD8^+ T Cell Reprogramming Assay, IKZF3; parameters: Cryopreserved healthy donor human peripheral blood mononuclear cells (PBMC); endogenous in cells; host or cells: human PBMC from healthy donors (CD8+ T cells by flow cytometry); conditions: human PBMC, CD8+ T cells, 24 hours; for Dmax / IKZF3 Aiolos Maximum Observed Degradation: 100% = complete degradation; for Dmax: read-out: IKZF3 Aiolos Maximum Observed Degradation
Description: Cryopreserved healthy donor human peripheral blood mononuclear cells (PBMC) from healthy donors were thawed and seeded at 500,000 cells/well of 96-well round bottom plates in RPMI 1640 media (Gibco) supplemented with 10% FBS, Pen/Strep (Gibco), MEM-NEAA (Gibco), and sodium pyruvate (Gibco). Cells were treated with titrated doses of compound for 24 hours at 37° C., 5% CO2 before analyzing by flow cytometry.
For flow cytometry staining, cells were washed twice with flow cytometry staining buffer (Thermo Fisher) and incubated in Human Tru-stain Fc block (Biolegend) for 10 minutes before adding eFluor780 viability dye (Thermo Fisher) and surface marker antibody cocktail containing LD-eFluor780, CD3-BUV-395, CD4-BUV805, CD8-FITC, and CD25-BV605 for 30 minutes at 4° C. Cells were then fixed and permeabilized by incubation with permeabilization buffer (eBioscience FoxP3 buffer set 00-5523-00) for 30 minutes at 4° C. as per the kit manufacturer's instructions. Cells were washed twice with the Perm/Wash buffer supplied in the kit as per the manufacturer's instructions and incubated overnight at 4° C. with an intracellular antibody cocktail comprised of antibodies specific for the transcription factors (i.e., Foxp3-BV421, HELIOS-PE-Cy7, EOS-PE, IKAROS-PECF594, AIOLOS-AF647). Cells were washed twice with Perm/Wash buffer and resuspended in flow cytometry staining buffer (Thermo Fisher) prior to acquisition. Sample acquisition and analysis was performed using a BD LSRFortessa (BD Biosciences) flow cytometer. Single-stain controls for each fluorochrome were prepared using UltraComp eBead Compensation Beads (Thermo Fisher). Data were analyzed using FlowJo version 10 and GraphPad Prism Software.
as §2, with “D-1” for “A-1”, “protein” for “protein, IKZF2 protein,”, “Human CD8^+ T Cell Reprogramming” for “Jurkat Cellular Degradation”

[4] = concentration reducing protein level by 50% vs DMSO

Row | Dmax [1] [%] | Dmax [2] [%] | Dmax [3] [%] | IKZF3 Aiolos Maximum Observed Degradation [3] [%] | DC50 [1, 4] [nM] | DC50 [2, 4] [nM] | IKZF3 Aiolos Maximum Observed Degradation ([3]; 1440 min) | DC50 [3, 4] [nM] | SMILES
1 | 15 | 17 | 0 | – | – | – | – | – | O=C1CCC(n2cc(-c3ccc(Br)cc3F)oc2=O)C(=O)N1 (centres unmarked) [Comparative Compound B, 3-(5-(4-bromo-2-fluorophenyl)-2-oxooxazol-3(2H)-yl)piperidine-2,6-dione]
2 | 46 | 57 | 80 | 80 | – | – | – | – | O=C1CCC(n2cc(-c3ccccc3)oc2=O)C(=O)N1 (centres unmarked) [Comparative Compound A, 3-(2-oxo-5-phenyloxazol-3(2H)-yl)piperidine-2,6-dione]
3 | 52 | 70 | 69 to 74 | – | 9010 | 749 | 69-74% | 22 to 25 | Cc1cc(-c2ccc(-c3cn(C4CCC(=O)NC4=O)c(=O)o3)c(F)c2)nc(N)c1OC(F)F (centres unmarked) [Example 1, 3-(5-(4-(6-Amino-5-(difluoromethoxy)-4-methylpyridin-2-yl)-2-fluorophenyl)-2-oxooxazol-3(2H)-yl)piperidine-2,6-dione]
